Data: ChEMBL document CHEMBL1126853, “A series of penicillin-derived C2-symmetric inhibitors of HIV-1 proteinase: structural and modeling studies” (J Med Chem, 1993)

Biological target: Human immunodeficiency virus type 1 protease (Human immunodeficiency virus 1, UniProt Q72874)
Assay: Inhibitory activity against HIV-1 Protease

Row | SMILES | IC50 [nM]
1 | CCNC(=O)[C@@H](NC(=O)c1ccccc1)[C@@H]1NC(C(=O)NCCNC(=O)[C@@H]2N[C@@H]([C@H](NC(=O)c3ccccc3)C(=O)NCC)SC2(C)C)C(C)(C)S1 (some centres not stated) | 390
2 | CCNC(=O)[C@@H](NC(=O)c1ccccc1-c1ccccc1)[C@@H]1NC(C(=O)NCCNC(=O)[C@@H]2N[C@@H]([C@H](NC(=O)c3ccccc3-c3ccccc3)C(=O)NCC)SC2(C)C)C(C)(C)S1 (some centres not stated) | 9.9
3 | CCNC(=O)[C@@H](NC(=O)c1c(-c2ccccc2)noc1C)[C@@H]1NC(C(=O)NCCNC(=O)[C@@H]2N[C@@H]([C@H](NC(=O)c3c(-c4ccccc4)noc3C)C(=O)NCC)SC2(C)C)C(C)(C)S1 (some centres not stated) | 5.4
4 | CCNC(=O)[C@@H](NC(=O)Cc1ccccc1)[C@@H]1NC(C(=O)NCCNC(=O)[C@@H]2N[C@@H]([C@H](NC(=O)Cc3ccccc3)C(=O)NCC)SC2(C)C)C(C)(C)S1 (some centres not stated) | 3
5 | CC1(C)S[C@H]([C@H](NC(=O)Cc2ccccc2)C(=O)NCC(F)(F)F)NC1C(=O)NCCNC(=O)[C@@H]1N[C@@H]([C@H](NC(=O)Cc2ccccc2)C(=O)NCC(F)(F)F)SC1(C)C (some centres not stated) | 4.4
6 | CC1(C)S[C@H]([C@H](NC(=O)Cc2ccccc2)C(=O)NCc2ccccc2)NC1C(=O)NCCCNC(=O)[C@@H]1N[C@@H]([C@H](NC(=O)Cc2ccccc2)C(=O)NCc2ccccc2)SC1(C)C (some centres not stated) | 540
7 | CC1(C)S[C@H]([C@H](NC(=O)Cc2ccccc2)C(=O)NCc2ccccc2)NC1C(=O)NCC(O)CNC(=O)[C@@H]1N[C@@H]([C@H](NC(=O)Cc2ccccc2)C(=O)NCc2ccccc2)SC1(C)C (some centres not stated) | 5
